According to patent publication US20120149657A1, “2'-FLUORO ARABINO NUCLEOSIDES AND USE THEREOF” (Southern Research Institute, priority 2009, published 2012):
Marks after values point to notes of the source that are not given here.

Key:
CCRF-CEM leukemia = assay: In vitro cytotoxicity (MTS, 72 h), CCRF-CEM; format: cell-based, human; conditions: for IC50: Homo sapiens, CCRF-CEM, 72 hours of incubation
Procedure: (§1) The concentration of compound required to inhibit cell growth by 50% (IC50) after 72 hours of incubation was determined for each unprotected analog with eight human tumor cell lines (SNB-7 CNS, DLD-1 colon, CCRF-CEM leukemia, NCI-H23 NSCL, ZR-75-1 breast, LOX melanoma, PC-3 prostate, and CAKI-1 renal). […] The α-anomers of these compounds were also screened but were not found to be cytotoxic (data not shown).
(§2) CCRF-CEM cells are a T-cell leukemia cell line that is known to be very sensitive to nucleoside analogs.
(§3) All cell lines were grown in RPMI 1640 medium containing 10% fetal bovine serum, sodium bicarbonate, and 2 mM L-glutamine. For in vitro evaluation of the sensitivity of these cell lines to compounds, cells were plated in 96-well microtiter plates and then were exposed continuously to various concentrations of the compounds for 72 h at 37° C. Cell viability was measured using the MTS assay [3-(4,5-dimethylthiazol-2-yl)-5-(3-carboxymethoxyphenyl)-2-(4-sulfophenyl)-2H-tetrazolium, inner salt; MTS and an electron coupling reagent (phenazine ethosulfate; PES)]. Absorbance was read at 490 nm. The background absorbance mean was subtracted from the data followed by conversion to percent of control. The drug concentrations producing survival just above and below 50% level were used in a linear regression analysis to calculate the IC50.

[1] = system: cells that lacked dCyd kinase; assay: Cytotoxicity in cells that lacked dCyd kinase; format: cell-based
From the text: as §2

SNB-7 CNS = assay: In vitro cytotoxicity (MTS, 72 h), SNB-7; format: cell-based; conditions: Homo sapiens; SNB-7, 72 hours of incubation
Procedure: as §1, §3

DLD-1 colon = assay: In vitro cytotoxicity (MTS, 72 h), DLD-1; format: cell-based; conditions: Homo sapiens; DLD-1, 72 hours of incubation
Procedure: as §1, §3

NCI-H23 NSCL [2] = assay: In vitro cytotoxicity (MTS, 72 h), NCI-H23; format: cell-based; conditions: Homo sapiens; NCI-H23, 72 hours of incubation
Procedure: as §1, §3

ZR-75-1 breast = assay: In vitro cytotoxicity (MTS, 72 h), ZR-75-1; format: cell-based; conditions: Homo sapiens; ZR-75-1, 72 hours of incubation
Procedure: as §1, §3

LOX melanoma [3] = assay: In vitro cytotoxicity (MTS, 72 h), LOX; format: cell-based; conditions: Homo sapiens, 72 hours of incubation
Procedure: as §1, §3

PC-3 prostate = assay: In vitro cytotoxicity (MTS, 72 h), PC-3; format: cell-based; conditions: Homo sapiens; PC-3, 72 hours of incubation
Procedure: as §1, §3

CAKI-1 renal [4] = assay: In vitro cytotoxicity (MTS, 72 h), CAKI-1; format: cell-based; conditions: Homo sapiens; CAKI-1, 72 hours of incubation
Procedure: as §1, §3

[5] = system: eight human tumor cell lines; assay: In vitro cytotoxicity, panel of eight human tumor cell lines; format: cell-based
Procedure: as §1, §3

CCRF-CEM cells = assay: Intracellular triphosphate in CCRF-CEM cells; format: cell-based, human
Procedure: CCRF-CEM cells were incubated with methyl-F-araC, araC, and gemcitabine, and the amount of intracellular triphosphate (TP) of each compound was determined.
CCRF-CEM cell extracts were collected by centrifugation and resuspended in ice-cold 0.5 M perchloric acid. The samples were centrifuged at 12,000×g, and the supernatant fluid was neutralized and buffered by adding 4 M KOH and 1 M potassium phosphate, pH 7.4. KClO4 was removed by centrifugation, and a portion of the supernatant fluid was injected onto a strong anion exchange HPLC (Bio Basic anion exchange column, Thermo Electron Corp., Bellefonte, Pa.). Nucleotides were eluted with a 30-min linear salt and pH gradient from 6 mM ammonium phosphate (pH 2.8) to 900 mM ammonium phosphate (pH 6). Peaks were detected as they eluted from the column by their absorbance at 254 nm.

Maximally tolerated dose = format: in vivo, mice; conditions: once per day for 9 consecutive days
Procedure: (§4) Because of its potent in vitro activity, methyl-F-araC (13) was evaluated for in vivo activity against three solid tumor xenografts (CAKI-1 renal, NCI-H23 NSCL, and LOX melanoma). Prior to these studies the maximally tolerated dose of methyl-F-araC was determined to be 3 mg/kg given once per day for 9 consecutive days. […] Female NCr-nu athymic mice were implanted subcutaneously with CAKI-1 tumor fragments. When tumors were approximately 100-250 mg, mice were treated ip with methyl-F-araC at 1, 2, or 3 mg/kg/dose (1 treatment each day for 9 consecutive days starting on day 14). Each treatment group contained 6 mice. The tumors were measured with calipers twice each week, and the weight (mg) was calculated. In this experiment there were 3 of 6 tumor-free survivors at the end of the experiment (62 days post implant) in each treatment group. Good results were also seen against NCI-H23 and LOX human tumor xenografts (Table 2).

CAKI-1 renal [6] = assay: CAKI-1 renal tumor xenograft, sc, in nude mice; format: in vivo, female NCr-nu athymic mice
Procedure: as §4
(§5) Xenografts were implanted sc on the flanks of female nude mice. When tumors were approximately 100-250 mg, they were treated ip with 3 or 4 mg/kg/dose of methyl-F-araC (q1d×9) and tumor size was measured twice weekly thereafter. Tumor-free survivors are the number of mice that were tumor-free at the end of the experiment/total number of mice in the treatment group. ^aThe difference in the median of times poststaging for tumors of the treated (T) and control (C) groups to double in mass three times. ^bThe difference in the median of times poststaging for tumors of the treated (T) and control (C) groups to double in mass two times. ^cThe difference in the median of times poststaging for tumors of the treated (T) and control (C) groups to double in mass four times.
Mice, obtained from various commercial suppliers, were housed in microisolator cages and were allowed commercial mouse food and water ad libitum. The three human tumors were obtained from the Developmental Therapeutics Program Tumor Repository (Frederick, Md.) and were maintained in in vivo passage. Only tumor lines that tested negative for selected viruses were used. For the in vivo evaluation of the sensitivity of human tumors to the compounds, female NCr-nu athymic mice were implanted subcutaneously (sc) with 30-40 mg tumor fragments. In each experiment, methyl-F-araC (13) was tested at three dosage levels. […]
(§6) Antitumor activity was assessed on the basis of delay in tumor growth (T-C). […] Tumors were measured in two dimensions (length and width) twice weekly, and the tumor weight was calculated using the formula (length×width^2)/2 and assuming unit density. […]

NCI-H23 NSCL [7] = assay: NCI-H23 NSCL tumor xenograft, sc, in nude mice; format: in vivo, female NCr-nu athymic mice
Procedure: as §4, §5
(§7) Mice, obtained from various commercial suppliers, were housed in microisolator cages and were allowed commercial mouse food and water ad libitum. […]
as §6

LOX melanoma [8] = assay: LOX melanoma tumor xenograft, sc, in nude mice; format: in vivo, female NCr-nu athymic mice
Procedure: as §4, §5, §7, §6

[9] = 3 mg/kg/dose ip q1d×9, tumor-free/total at end of experiment

Q: For `C[C@]1(CO)O[C@@H](n2cnc3c(=O)[nH]c(N)nc32)[C@@H](F)[C@@H]1O` [Compound 22, 9-(2-Deoxy-2-fluoro-4-C-methyl-β-D-arabinofuranosyl)guanine], which IC50 (CCRF-CEM leukemia) is on record?
A: Its IC50 is roughly 500 nM.

Q: Which IC50 (CCRF-CEM leukemia) does the source give for `C[C@]1(CO)O[C@@H](n2cnc3c(N)nc(Cl)nc32)[C@@H](F)[C@@H]1O` [Compound 24, 2-Chloro-9-(2-deoxy-2-fluoro-4-C-methyl-β-D-arabinofuranosyl)adenine] here?
A: Its IC50 is roughly 500 nM.

Q: And the “inhibition of CCRF-CEM cell growth with dCyd added to the culture medium” value (CCRF-CEM leukemia)?
A: The value was “prevented”.

Q: What about the “activity in cells that lacked dCyd kinase” value [1] of the same compound?
A: Its value is “neither compound was active”.

Q: Which results are given for `C[C@]1(CO)O[C@@H](n2ccc(N)nc2=O)[C@@H](F)[C@@H]1O` [methyl-F-araC, 1-(2-Deoxy-2-fluoro-4-C-methyl-β-D-arabinofuranosyl)cytosine]?
A: IC50 (SNB-7 CNS): > 200000 nM; IC50 (DLD-1 colon): > 200000 nM; IC50 (CCRF-CEM leukemia): 12 ± 3 nM; inhibition of CCRF-CEM cell growth with dCyd added to the culture medium (CCRF-CEM leukemia): prevented; IC50 (NCI-H23 NSCL [2]): 190 ± 10 nM; IC50 (ZR-75-1 breast): > 200000 nM; IC50 (LOX melanoma [3]): 240 ± 150 nM; IC50 (PC-3 prostate): > 200000 nM; IC50 (CAKI-1 renal [4]): 540 ± 580 nM; cytotoxicity (in words) [5]: significant cytotoxicity against four of the cell lines; activity in cells that lacked dCyd kinase [1]: neither compound was active; intracellular concentration of triphosphate (CCRF-CEM cells; human, 2 h, 100 nM): 16±2 pmoles/10^6 cells; maximally tolerated dose (Maximally tolerated dose): 3 mg/kg; T-C (days) (CAKI-1 renal [6]; 3 mg/kg/dose ip q1d×9, time to double in mass three times): >34.6^a days; Tumor-free survivors (CAKI-1 renal [6]; [9]): 3/6; tumor-free survivors in each treatment group (CAKI-1 renal [6]; 1, 2, or 3 mg/kg/dose ip, 9 days from day 14, 62 days post implant): 3 of 6; in vivo activity (in words) (CAKI-1 renal [6]; CAKI-1 tumors, FIG. 1): excellent activity; T-C (days) (NCI-H23 NSCL [7]; 4 mg/kg/dose ip q1d×9, time to double in mass two times): 18.4^b days; Tumor-free survivors (NCI-H23 NSCL [7]; 4 mg/kg/dose ip q1d×9, tumor-free/total at end of experiment): 0/5; in vivo activity (in words) (NCI-H23 NSCL [7]; NCI-H23 xenograft): Good results; T-C (days) (LOX melanoma [8]; 3 mg/kg/dose ip q1d×9, time to double in mass four times): 15.0^c days; Tumor-free survivors (LOX melanoma [8]; [9]): 0/6; in vivo activity (in words) (LOX melanoma [8]; LOX xenograft): Good results

Q: With `Nc1ccn([C@@H]2O[C@H](CO)[C@@H](O)[C@@H]2O)c(=O)n1` [araC] as the compound, how does the “intracellular concentration of triphosphate” value (CCRF-CEM cells; 100 nM of compound, two hours, mean±SD, N=3) read?
A: The value was 12±1 pmoles/10^6 cells.

Q: And the “intracellular half-life of triphosphate” value (CCRF-CEM cells; CCRF-CEM cells, N=2)?
A: Its value is 5.6 h.

Q: For `Nc1ccn([C@@H]2O[C@H](CO)[C@@H](O)C2(F)F)c(=O)n1` [gemcitabine], which “intracellular concentration of triphosphate” value (CCRF-CEM cells; human, 2 h, 100 nM) is on record?
A: Its value is 17±3 pmoles/10^6 cells.

Q: Which IC50 (CCRF-CEM leukemia) does the source give for `C[C@]1(CO)O[C@@H](n2cnc3c(N)nc(N)nc32)[C@@H](F)[C@@H]1O` [Compound 21, 2,6-Diamino-9-(2-deoxy-2-fluoro-4-C-methyl-β-D-arabinofuranosyl)purine] here?
A: Its IC50 is roughly 500 nM.

Q: What about the “cytotoxicity with addition of deoxycoformycin” value (CCRF-CEM leukemia; deoxycoformycin (adenosine deaminase inhibitor) added) of the same compound?
A: Its value is “prevented”.

Q: And the melting point?
A: Its melting point is 270 °C (dec.).
